Here are results for one molecule from US9206445B2, “Biocatalysts with enhanced inhibitor tolerance” (priority 2013, dated 2015).

The test relates to Z. mobilis 8b. Kind of test: Furfural MIC for growth of Z. mobilis (plate screening levels given as MIC multiples). In kind it is cell-based. To be noted: Zymomonas mobilis, 24 h, read-out: MIC 1× (minimum concentration of inhibitor needed for complete inhibition of growth). On the procedure: Both Z. mobilis 8b and 8b knockout library cultures were revived from glycerol stocks in 20 mL MRMG0.75×0.25 (10 g/L yeast extract, 2 g/L KH2PO4 and 1 g/L MgSO4.7H2O, 7.5 g/L glucose and 2.5 g/L xylose) and also containing […] spectinomycin for 1.5 hours at 35° C., 125 rpm. Cells were centrifuged and resuspended to a final OD600 nm of 0.025 in a 100 mL culture, and grown for an additional 3-4 generations at 35° C. in 125 mL Erlenmeyer flasks with foam enclosures, 125 rpm (about 6 hours). Cells were initially screened on MRMGS (5% w/v glucose) plates containing 0, […], 5, or 7.5 g/L of furfural, equivalent to MICs of 0.75×, 1× or 1.5×. MIC 1× is the minimum (lowest) concentration of inhibitor needed for complete inhibition of growth (RMG2) over a 24-hour period. Approximately 500, 1000 and 2000 colonies were plated in triplicates. Furfural levels were also tested at 0.7, 1.5, 3 or 4 g/L in glucose.

Converted amounts (≈) assume the structure as drawn.

Turning to `O=Cc1ccco1` [furfural], the MIC stood at 5000 µg/mL (≈ 52 mM).
